These are literature values, as cited in patent US20210360917A1, “CUTICLE SUPPLEMENT FOR PLANT PRODUCTION” (OREGON STATE UNIVERSITY, priority 2018, published 2021).

The data set concerns spotted wing Drosophila. The following applies: chemical alternative, source not given.

On to `CCOC(=O)CC(SP(=S)(OC)OC)C(=O)OCC` (stereo not shown) [malathion], for which the “reduction of egg laying” value is “about 50%”.
